Results from patent publication US3989845A, “Anesthetic chlorocyclopropanes” (priority 1974, dated 1976).

Tested on: Mice
Assay: Inhalation anesthesia test in mice, 10 minutes in a rotating drum (pinch, corneal and righting reflex): AC50, LC50 and anesthetic index
Format: in vivo
Settings: for AI (anesthetic index, LC50/AC50): calculated from LC50 and AC50, 10 min; for AC50 (minimum concentration required to anesthetize 50% of the mice) / LC50 (minimum concentration required to kill 50% of the mice): inhalation, 10 minutes in rotating drum, at least four graded doses, where two figures are given, the actual value lies between them
Procedure: Mice were exposed to the anesthetic for a period of 10 minutes in a rotating drum. Observations were then made of the pinch reflex, the corneal reflex and the return of the righting reflex. At least four graded doses were employed to determine the minimum concentration required to anesthetize 50% of the mice used (AC50) and the minimum concentration required to kill 50% of the mice (LC50). The anesthetic index (AI) was then calculated from these minimum concentrations.

Compound	AI (anesthetic index, LC50/AC50)	AC50 (minimum concentration required to anesthetize 50% of the mice)	LC50 (minimum concentration required to kill 50% of the mice)
FC(F)(F)C1(F)C(F)(F)C1(Cl)Cl (stereo not drawn) [Example 11, 1,1-diCl-2-CF3-triF-]	~ 2	4 % volume	> 10 % volume
FC1C(F)(F)C1(Cl)Cl (stereo not drawn) [Example 14, 1,1-diCl-2,3,3-triF-]	2-3	< 2 % volume	4-6 % volume
CC1(Cl)CC1(F)Cl (stereo not drawn) [Example 9, 1,2-Dichloro-1-fluoro-2-methylcyclopropane]	> 2	< 1 % volume	2-4 % volume
FC1(F)C(Cl)(Cl)C1(Cl)Cl [Example 13, 1,1,2,2-tetraCl-diF-]	~ 4	0.25 % volume	1 % volume
CC1(F)C(F)(F)C1(Cl)Cl (stereo not drawn) [Example 8, 1,1-diCl-2-CH3-triF-]	4-6	< 1 % volume	4-6 % volume
FC1(F)C(F)(Cl)C1(F)Cl (stereo not drawn) [Example 12, 1,2-Dichlorotetrafluorocyclopropane]	~ 2	6-10 % volume	< 20 % volume
FC1(F)C(F)(Cl)C1(Cl)Cl (stereo not drawn) [Example 10, 1,1,2-triCl-triF-]	> 3	1.5 % volume	2-10 % volume
